Measured values: patent US11912703B2, “6-azaindole compounds” (BRISTOL-MYERS SQUIBB COMPANY, priority 2017, dated 2024)
Where two headings read alike, the source gives them in different places.

How the values were obtained:
human TLR7 = human TLR7 (Homo sapiens (Human), UniProt Q9NYK1); test: TLR7 inhibition reporter assay (HEK-Blue SEAP); type: cell-based; conditions: HEK-Blue cells overexpressing human TLR7, gardiquimod 7.5 μM stimulation
Procedure: HEK-Blue™-cells (Invivogen) overexpressing human TLR7, TLR8 or TLR9 receptors were used for screening inhibitors of these receptors using an inducible SEAP (secreted embryonic alkaline phosphatase) reporter gene under the control of the IFN-β minimal promoter fused to five NF-κB and AP-1-binding sites. Briefly, cells are seeded into Greiner 384 well plates (15000 cells per well for TLR7, 20,000 for TLR8 and 25,000 for TLR9) and then treated with test compounds in DMSO to yield a final dose response concentration range of 0.05 nM-50 μM. After a 30 minute compound pre-treatment at room temperature, the cells are then stimulated with a TLR7 ligand (gardiquimod at a final concentration of 7.5 μM), TLR8 ligand (R848 at a final concentration of 15.9 μM) or TLR9 ligand (ODN2006 at a final concentration of 5 nM) to activate NF-κB and AP-1 which induce the production of SEAP. After a 22 hour incubation at 37° C., 500 CO2, SEAP levels are determined with the addition of HEK-Blue™ Detection reagent (Invivogen), a cell culture medium that allows for detection of SEAP, according to manufacturer's specifications.

human TLR8 = human TLR8 (Homo sapiens (Human), UniProt Q9NR97); test: TLR8 inhibition reporter assay (HEK-Blue SEAP);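 also: SEAP driven by IFN-β minimal promoter with five NF-κB and AP-1 sites, compounds tested 0.05 nM to 50 µM, 22 h incubation, inhibition relative to agonist plus DMSO wells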
human TLR9 = human TLR9 (Homo sapiens (Human), UniProt Q9NR96); test: TLR9 inhibition reporter assay (HEK-Blue SEAP);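 also: SEAP driven by IFN-β minimal promoter carrying five NF-κB and AP-1 sites, 22 h at 37 °C, compounds 0.05 nM–50 µM, inhibition scaled between agonist-plus-DMSO and reference-inhibitor wells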
[1] = read-out: TLR8 IC50; HEK-Blue cells overexpressing human TLR8, R848 15.9 μM stimulation, SEAP reporter
[2] = read-out: TLR9 IC50; HEK-Blue cells overexpressing human TLR9, ODN2006 5 nM stimulation, SEAP reporter

Sequence of human TLR7 (Q9NYK1 27-1049): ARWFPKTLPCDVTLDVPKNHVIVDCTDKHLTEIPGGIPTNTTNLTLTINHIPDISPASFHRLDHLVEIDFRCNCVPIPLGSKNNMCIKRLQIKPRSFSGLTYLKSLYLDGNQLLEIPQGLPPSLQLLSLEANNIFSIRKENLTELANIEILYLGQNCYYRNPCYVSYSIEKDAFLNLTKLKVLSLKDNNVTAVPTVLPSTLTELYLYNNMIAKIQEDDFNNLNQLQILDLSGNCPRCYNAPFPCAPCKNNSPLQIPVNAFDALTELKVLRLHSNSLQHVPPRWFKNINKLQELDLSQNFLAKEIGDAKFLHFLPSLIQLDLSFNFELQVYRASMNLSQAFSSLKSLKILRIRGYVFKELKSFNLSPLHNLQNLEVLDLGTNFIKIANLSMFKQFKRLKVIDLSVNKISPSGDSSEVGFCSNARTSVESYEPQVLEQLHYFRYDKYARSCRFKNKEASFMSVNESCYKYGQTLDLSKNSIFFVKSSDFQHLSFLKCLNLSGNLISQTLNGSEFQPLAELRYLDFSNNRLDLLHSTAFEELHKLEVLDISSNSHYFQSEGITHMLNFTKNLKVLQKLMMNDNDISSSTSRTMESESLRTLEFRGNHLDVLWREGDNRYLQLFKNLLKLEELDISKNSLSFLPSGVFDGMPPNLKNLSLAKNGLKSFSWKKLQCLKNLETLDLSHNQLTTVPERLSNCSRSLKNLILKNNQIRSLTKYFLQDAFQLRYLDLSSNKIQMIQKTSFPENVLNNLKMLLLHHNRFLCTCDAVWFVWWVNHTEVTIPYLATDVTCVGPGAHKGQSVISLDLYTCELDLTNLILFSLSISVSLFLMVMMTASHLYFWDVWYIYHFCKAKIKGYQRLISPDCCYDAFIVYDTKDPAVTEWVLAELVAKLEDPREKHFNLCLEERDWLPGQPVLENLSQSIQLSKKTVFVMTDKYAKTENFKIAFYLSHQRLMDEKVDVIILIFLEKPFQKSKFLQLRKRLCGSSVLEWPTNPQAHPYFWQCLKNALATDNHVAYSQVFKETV
Sequence of human TLR9 (Q9NR96 26-1032): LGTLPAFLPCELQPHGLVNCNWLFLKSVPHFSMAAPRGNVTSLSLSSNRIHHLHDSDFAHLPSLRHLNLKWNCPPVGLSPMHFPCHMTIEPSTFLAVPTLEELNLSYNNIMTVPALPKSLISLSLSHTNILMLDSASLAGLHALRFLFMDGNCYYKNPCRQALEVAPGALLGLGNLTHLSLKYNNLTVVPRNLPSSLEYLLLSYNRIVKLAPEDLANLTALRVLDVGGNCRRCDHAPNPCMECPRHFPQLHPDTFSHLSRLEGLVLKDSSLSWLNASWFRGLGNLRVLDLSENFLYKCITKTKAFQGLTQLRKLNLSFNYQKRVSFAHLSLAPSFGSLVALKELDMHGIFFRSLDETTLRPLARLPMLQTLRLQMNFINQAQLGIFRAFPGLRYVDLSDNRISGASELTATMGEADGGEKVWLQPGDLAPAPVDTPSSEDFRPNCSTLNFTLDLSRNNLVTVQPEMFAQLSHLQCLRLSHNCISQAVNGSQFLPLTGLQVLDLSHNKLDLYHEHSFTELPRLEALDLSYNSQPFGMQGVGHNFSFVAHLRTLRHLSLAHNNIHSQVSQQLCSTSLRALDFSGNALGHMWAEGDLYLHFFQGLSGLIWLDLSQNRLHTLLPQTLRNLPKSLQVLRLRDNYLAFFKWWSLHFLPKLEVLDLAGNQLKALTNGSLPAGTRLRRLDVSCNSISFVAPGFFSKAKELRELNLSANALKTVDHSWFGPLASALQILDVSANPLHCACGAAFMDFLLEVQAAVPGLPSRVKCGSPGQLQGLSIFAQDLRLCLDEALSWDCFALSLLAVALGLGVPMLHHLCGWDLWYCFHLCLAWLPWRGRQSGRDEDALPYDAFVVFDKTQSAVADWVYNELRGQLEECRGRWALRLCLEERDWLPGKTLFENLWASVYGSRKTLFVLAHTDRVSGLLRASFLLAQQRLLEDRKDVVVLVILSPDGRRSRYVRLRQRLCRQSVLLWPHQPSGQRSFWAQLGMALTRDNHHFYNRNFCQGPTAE
Sequence of human TLR8 (Q9NR97 27-1041): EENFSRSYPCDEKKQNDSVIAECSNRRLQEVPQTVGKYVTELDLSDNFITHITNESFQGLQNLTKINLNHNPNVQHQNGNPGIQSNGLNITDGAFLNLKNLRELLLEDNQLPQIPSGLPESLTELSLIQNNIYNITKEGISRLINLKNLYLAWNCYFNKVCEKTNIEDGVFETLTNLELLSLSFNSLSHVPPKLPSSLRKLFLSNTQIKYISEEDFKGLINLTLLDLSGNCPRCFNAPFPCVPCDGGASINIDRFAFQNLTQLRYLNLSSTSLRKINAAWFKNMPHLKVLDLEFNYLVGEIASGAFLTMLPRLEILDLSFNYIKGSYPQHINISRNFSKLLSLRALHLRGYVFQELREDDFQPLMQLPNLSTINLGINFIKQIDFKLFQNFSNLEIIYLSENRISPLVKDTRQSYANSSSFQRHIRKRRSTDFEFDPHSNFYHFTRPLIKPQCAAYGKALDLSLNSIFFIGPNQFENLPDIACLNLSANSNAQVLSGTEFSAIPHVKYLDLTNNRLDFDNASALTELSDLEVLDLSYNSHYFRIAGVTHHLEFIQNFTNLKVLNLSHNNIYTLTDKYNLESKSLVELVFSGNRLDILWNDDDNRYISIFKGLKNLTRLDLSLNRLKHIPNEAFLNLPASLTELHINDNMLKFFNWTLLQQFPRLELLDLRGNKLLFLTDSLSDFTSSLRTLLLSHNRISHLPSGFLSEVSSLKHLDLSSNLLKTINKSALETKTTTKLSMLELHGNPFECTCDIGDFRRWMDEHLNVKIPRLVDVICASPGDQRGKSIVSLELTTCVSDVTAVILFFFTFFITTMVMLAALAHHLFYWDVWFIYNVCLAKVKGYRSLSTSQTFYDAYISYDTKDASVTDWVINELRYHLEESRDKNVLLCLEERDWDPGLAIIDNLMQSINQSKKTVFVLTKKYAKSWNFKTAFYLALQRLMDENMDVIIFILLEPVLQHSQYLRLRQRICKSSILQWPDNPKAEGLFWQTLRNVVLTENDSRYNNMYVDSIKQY

COc1ccc(-c2[nH]c3cnc(C4CCN(C5CCN(CC(C)C)CC5)CC4)cc3c2C)cc1OC [Example 9]
IC50 (human TLR7): 551 nM | IC50 (human TLR8; [1]): 8220 nM | IC50 (human TLR9; [2]): 26 nM

COc1cc(-c2[nH]c3cnc(C4CCN(CCS(C)(=O)=O)CC4)c(F)c3c2C(C)C)cn2ncnc12 [Example 14]
IC50 (human TLR7): 3.9 nM | IC50 (human TLR8; [1]): 3.4 nM | IC50 (human TLR9; [2]): 13000 nM

Cc1cc(-c2[nH]c3cnc(C4CCN(C(=O)CN(C)C)CC4)c(F)c3c2C(C)C)cn2ncnc12 [Example 66]
IC50 (human TLR7): 2.1 nM | IC50 (human TLR8; [1]): 4.9 nM | IC50 (human TLR9; [2]): 3620 nM

COc1cc(-c2[nH]c3cnc(C4CCC(N5CC6(COC6)C5)CC4)c(F)c3c2C(C)C)cn2ncnc12 (stereo not shown) [Example 226]
IC50 (human TLR7): 0.51 nM | IC50 (human TLR8; read-out: TLR8 IC50; HEK-Blue cells overexpressing human TLR8; R848 15.9 μM stimulation; SEAP reporter): 0.73 nM | IC50 (human TLR9; read-out: TLR9 IC50; HEK-Blue cells overexpressing human TLR9; ODN2006 5 nM stimulation; SEAP reporter): 1290 nM

COC(C)(C)CNC1CCN(c2ncc3[nH]c(-c4cn5ncnc5c(C)c4C)c(C(C)C)c3c2C)CC1 [Example 173]
IC50 (human TLR7): 1.5 nM | IC50 (human TLR8; [1]): 0.54 nM | IC50 (human TLR9; [2]): 653 nM

Cc1c(-c2[nH]c3cnc(N4CCN(C(=O)CN(C)C)CC4)c(C)c3c2C(C)C)cn2ncnc2c1C [Example 416, 1-(4-(2-(7,8-dimethyl-[1,2,4]triazolo[1,5-a]pyridin-6-yl)-3-isopropyl-4-methyl-1H-pyrrolo[2,3-c]pyridin-5-yl)piperazin-1-yl)-2-(dimethylamino)ethan-1-one]
IC50 (human TLR7): 10 nM | IC50 (human TLR8; [1]): 1.7 nM | IC50 (human TLR9; [2]): 1730 nM

COc1cc(-c2[nH]c3cnc(C4CCC(N5CC(OC)C5)CC4)c(C)c3c2C(C)C)cn2ncnc12 (stereo not shown) [Example 180]
IC50 (human TLR8; [1]): 9.6 nM | IC50 (human TLR9; [2]): 664 nM

COc1cc(-c2[nH]c3cnc(C4CCC(N5CC(OC)C5)CC4)c(C)c3c2C(C)C)cn2ncnc12 (stereo not shown) [Example 62]
IC50 (human TLR8; [1]): 21 nM | IC50 (human TLR9; [2]): 417 nM

CCN1CCN(c2ncc3[nH]c(-c4cc(OC)c5ncnn5c4)c(C(C)C)c3c2F)CC1 [Example 389]
IC50 (human TLR7): 1.1 nM | IC50 (human TLR8; [1]): 0.38 nM | IC50 (human TLR9; [2]): 6160 nM

Cc1c(-c2[nH]c3cnc(C4CCC(NCC5(C)COC5)CC4)c(C)c3c2C(C)C)cn2ncnc2c1C (stereo not shown) [Example 204]
IC50 (human TLR7): 6.6 nM | IC50 (human TLR8; [1]): 3.1 nM | IC50 (human TLR9; [2]): 466 nM

COc1cc(-c2[nH]c3cnc(C4CCC(NC[C@@H](F)C(C)(C)O)CC4)c(C)c3c2C(C)C)cn2ncnc12 (stereo partly shown) [Example 117]
IC50 (human TLR7): 28 nM | IC50 (human TLR8; [1]): 41 nM | IC50 (human TLR9; [2]): 868 nM

Cc1c(-c2[nH]c3cnc(N4CC5(CN(CC(F)(F)F)C5)C4)c(F)c3c2C(C)C)cn2ncnc2c1C [Example 434]
IC50 (human TLR7): 90 nM | IC50 (human TLR8; [1]): 48 nM | IC50 (human TLR9; [2]): > 50000 nM

CNC(=O)CN(C)C1CCN(c2ncc3[nH]c(-c4cc(C)c5ncnn5c4)c(C(C)C)c3c2F)CC1 [Example 259]
IC50 (human TLR7): 2.1 nM | IC50 (human TLR8; [1]): 2.6 nM | IC50 (human TLR9; [2]): 16800 nM

Cc1cc(-c2[nH]c3cnc(C4CCC(NC5COC5)CC4)c(F)c3c2C(C)C)cn2ncnc12 (stereo not shown) [Example 107]
IC50 (human TLR7): 3.6 nM | IC50 (human TLR8; [1]): 4.5 nM | IC50 (human TLR9; [2]): 2060 nM

COc1cc(-c2[nH]c3cnc(C4CCC(NCC(C)(C)OC)C4)cc3c2C(C)C)cn2ncnc12 (stereo not shown) [Example 123]
IC50 (human TLR7): 26 nM | IC50 (human TLR8; [1]): 31 nM | IC50 (human TLR9; [2]): 1110 nM

Cc1c(-c2[nH]c3cnc(C4CCC(NC5CCOC5)CC4)cc3c2C(C)C)cn2ncnc2c1C (stereo not shown) [Example 349]
IC50 (human TLR7): 1.1 nM | IC50 (human TLR8; [1]): 3.6 nM | IC50 (human TLR9; [2]): 344 nM

COc1cc(-c2[nH]c3cnc(C4CCC(NCC(C)(C)OC)C4)cc3c2C(C)C)cn2ncnc12 (stereo not shown) [Example 96]
IC50 (human TLR7): 24 nM | IC50 (human TLR8; [1]): 7.7 nM | IC50 (human TLR9; [2]): 294 nM

COc1cc(-c2[nH]c3cnc(C4CCC(NC5COC5)CC4)cc3c2C(C)C)cn2ncnc12 (stereo not shown) [Example 330]
IC50 (human TLR7): 1.1 nM | IC50 (human TLR8; [1]): 5.5 nM | IC50 (human TLR9; [2]): 255 nM

COc1cc(-c2[nH]c3cnc(C4CCC(NC5COC5)C4)cc3c2C(C)C)cn2ncnc12 (stereo not shown) [Example 93]
IC50 (human TLR7): 18 nM | IC50 (human TLR8; [1]): 37 nM | IC50 (human TLR9; [2]): 2830 nM

COc1cc(-c2[nH]c3cnc(C4CCC(NC5CCOCC5)CC4)c(C)c3c2C(C)C)cn2ncnc12 (stereo not shown) [Example 241]
IC50 (human TLR7): 3.5 nM | IC50 (human TLR8; [1]): 11 nM | IC50 (human TLR9; [2]): 285 nM

COc1cc(-c2[nH]c3cnc(N4CCN(C5COC5)CC4)c(F)c3c2C(C)C)cn2ncnc12 [Example 382]
IC50 (human TLR7): 4.5 nM | IC50 (human TLR8; [1]): 18 nM | IC50 (human TLR9; [2]): > 50000 nM

CNCC(=O)N1CCC(c2ncc3[nH]c(-c4cc(OC)c5ncnn5c4)c(C(C)C)c3c2F)CC1 [Example 10]
IC50 (human TLR7): 5.6 nM | IC50 (human TLR8; [1]): 19 nM | IC50 (human TLR9; [2]): 896 nM

COc1cc(-c2[nH]c3cnc(N4CCN(C(=O)CN(C)C)CC4)c(Cl)c3c2C(C)C)cn2ncnc12 [Example 304]
IC50 (human TLR7): 1.5 nM | IC50 (human TLR8; [1]): 2.2 nM | IC50 (human TLR9; [2]): 505 nM

CCN(C)C1CCC(c2cc3c(C(C)C)c(-c4cc(OC)c5ncnn5c4)[nH]c3cn2)CC1 (stereo not shown) [Example 316]
IC50 (human TLR7): 9.5 nM | IC50 (human TLR8; [1]): 33 nM | IC50 (human TLR9; [2]): 80 nM

CCN1CC2(C1)CN(c1ncc3[nH]c(-c4cn5ncnc5c(C)c4C)c(C(C)C)c3c1F)C2 [Example 408]
IC50 (human TLR7): 16 nM | IC50 (human TLR8; [1]): 61 nM | IC50 (human TLR9; [2]): 12400 nM
